{
  "source": "patent US7348138B2",
  "about": "“Method of inducing cell death using West Nile virus capsid protein” (priority 2000, dated 2008)",
  "key": {"splenic lymphocytes": {"system": "splenic lymphocytes", "test": "Lymphoproliferative assay (tritiated thymidine incorporation, stimulation index)", "format": "cell-based, mice", "experimental": "To evaluate the T cell-mediated immune response against the WNV Cp gene product, an in vivo mouse experiment was set up. The quadriceps muscles of 6- to 8-week-old female BALB/c mice (Harlan Sprague Dawley, Inc., Indianapolis, Ind.) were injected with 100 μg of pWNVh-DJY, pWNVy-DJY, or pcDNA3.1 (without an insert) in PBS and 0.25% bupivacaine-HCl (Sigma, St Louis, Mo.). Two weeks later, the mice received a boost of another 100 μg DNA injections. Thirteen days after the boost injection, the mice were sacrificed, the spleens were harvested, and the lymphocytes were isolated and tested for cellular immune responses.\nHarvested splenic lymphocytes were pooled for two mice in each immunized group and suspended to a concentration of 5×10^6 cells/ml. A 100 μl aliquot, containing 5×10^5 cells, was immediately added to each well of a 96-well, flat bottom microtiter plate. Reconstituted peptide, in vitro translated protein, or in vitro translation control were added to the wells, at concentrations of 5 μg/ml and 1 μg/ml (and 0.5 μg/ml for in vitro translated protein and in vitro translation control protein). Concanavalin A (Con A) was used as a positive proliferation control. The assay conditions were set up in triplicate. The cells were incubated at 37° C. in 5% CO2 for three days. One μCi of tritiated thymidine was added to each well and the cells were incubated for 18 hours at 37° C. The plate was harvested and the amount of incorporated tritiated thymidine was measured in a Beta Plate reader (Wallac, Turku, Finland). Stimulation Index was determined from the formula: Stimulation Index (SI)=(experimental count/spontaneous count). Spontaneous count wells included 5% fetal bovine serum which served as an irrelevant protein control.\nThe values presented for each condition are stimulation indices averaged over triplicate wells. For each immunization group tested, splenocytes were pooled from two mice within the group. “H” indicates splenocytes from the pWNVh-DJY-immunized group. “Y” indicates splenocytes from the pWNVh-DJY-immunized group of mice. “pcDNA3.1” indicates splenocytes from the pcDNA3.1-immunized control group of mice. Peptides 1, 2, and 3 are the WNVC-P1, WNVC-P2, and WNVC-P3 peptides described above. “Peptide 123” indicates a mixture of peptide 1, 2, and 3. “Y protein” indicates the Cp protein in vitro translated from the pWNVy-DJY construct. “Ctrl pro” indicates the in vitro translation control, generated with pcDNA3.1 vector containing no expressible insert, as described above. Detection of Intracellular IFN-γ by Flow Cytometry"}, "[1]": {"system": "SH-SY5Y neuroblastoma cells", "test": "TUNEL analysis of cells incubated with peptide", "format": "cell-based", "details": "10 μg peptide per 1×10^5 cells, 24 hours", "experimental": "Peptide WNVC-P3, as described in Example 3 and FIG. 11 above, was tested for its ability to induce apoptosis in cells in culture. Peptide WNVC-P3 was incubated with SH-SY5Y neuroblastoma cells (ATCC; Manassas, Va.) at a concentration of 10 μg peptide per 1×10^5 cells."}, "[2]": {"details": "splenocytes from H (pWNVh-DJY-immunized) mice, protein or peptide 1 μg/ml"}, "[3]": {"details": "splenocytes from H (pWNVh-DJY-immunized) mice, protein or peptide 5 μg/ml"}, "[4]": {"details": "splenocytes from Y group of immunized mice, protein or peptide 1 μg/ml"}, "[5]": {"details": "splenocytes from Y group of immunized mice, protein or peptide 5 μg/ml"}, "[6]": {"details": "splenocytes from pcDNA3.1-immunized control mice, protein or peptide 1 μg/ml"}, "[7]": {"details": "splenocytes from pcDNA3.1-immunized control mice, protein or peptide 5 μg/ml"}},
  "data": [
    {"substance": "SKKPGGPGKSRAVNMLKRGMPR [Peptide 1]", "values": [
      {"measurement": "Stimulation Index (SI)", "setting": "splenic lymphocytes; [2]", "result": 0.7},
      {"measurement": "Stimulation Index (SI)", "setting": "splenic lymphocytes; [3]", "result": 0.5},
      {"measurement": "Stimulation Index (SI)", "setting": "splenic lymphocytes; [4]", "result": 1.2},
      {"measurement": "Stimulation Index (SI)", "setting": "splenic lymphocytes; [5]", "result": 0.8},
      {"measurement": "Stimulation Index (SI)", "setting": "splenic lymphocytes; [6]", "result": 1.3},
      {"measurement": "Stimulation Index (SI)", "setting": "splenic lymphocytes; [7]", "result": 0.9}
    ]},
    {"substance": "TLTSAINRRSSKQKKRGGKTGI [Peptide 3]", "values": [
      {"measurement": "TUNEL-positive cells", "setting": "[1]", "result": "TUNEL-positive cells were identified"},
      {"measurement": "Stimulation Index (SI)", "setting": "splenic lymphocytes; [2]", "result": 2.0},
      {"measurement": "Stimulation Index (SI)", "setting": "splenic lymphocytes; [3]", "result": 1.5},
      {"measurement": "Stimulation Index (SI)", "setting": "splenic lymphocytes; [4]", "result": 1.4},
      {"measurement": "Stimulation Index (SI)", "setting": "splenic lymphocytes; [5]", "result": 1.1},
      {"measurement": "Stimulation Index (SI)", "setting": "splenic lymphocytes; [6]", "result": 0.7},
      {"measurement": "Stimulation Index (SI)", "setting": "splenic lymphocytes; [7]", "result": 0.8}
    ]},
    {"substance": "Concanavalin A [Con A, reference compound]", "values": [
      {"measurement": "Stimulation Index (SI)", "setting": "splenic lymphocytes; [3]", "result": 686.5},
      {"measurement": "Stimulation Index (SI)", "setting": "splenic lymphocytes; [5]", "result": 366.9},
      {"measurement": "Stimulation Index (SI)", "setting": "splenic lymphocytes; [7]", "result": 71.8}
    ]},
    {"substance": "KRAMLSLIDGKGPIRFVLA [Peptide 2]", "values": [
      {"measurement": "Stimulation Index (SI)", "setting": "splenic lymphocytes; [2]", "result": 1.3},
      {"measurement": "Stimulation Index (SI)", "setting": "splenic lymphocytes; [3]", "result": 1.7},
      {"measurement": "Stimulation Index (SI)", "setting": "splenic lymphocytes; [4]", "result": 1.8},
      {"measurement": "Stimulation Index (SI)", "setting": "splenic lymphocytes; [5]", "result": 1.6},
      {"measurement": "Stimulation Index (SI)", "setting": "splenic lymphocytes; [6]", "result": 1.0},
      {"measurement": "Stimulation Index (SI)", "setting": "splenic lymphocytes; [7]", "result": 0.9}
    ]}
  ]
}
